Source: patent publication US8506946B2, “Compositions and methods for attracting noctuid moths” (Cotton Incorporated, priority 2006, dated 2013)

Assays:
Spodoptera exigua = test: Field trap capture of Spodoptera exigua with (Z)-11-hexadecen-1-ol with or without synergist (Tedders traps); type: in vivo; conditions: approximately 3-6 mg β-caryophyllene added to (Z)-11-hexadecen-1-ol vs control trap with (Z)-11-hexadecen-1-ol only
Procedure: An experiment was carried out in three locations in Arkansas to study the response of beet army worm, Spodoptera exigua, in a cotton field to a pheromone synergist. The locations were near Fayetteville, Washington County, near Tillar, Drew County, and near Foreman, Little River County. β-caryophyllene was used as a synergist with (Z)-11-hexadecen-1-ol, a pheromone for Spodoptera exigua. Tedders traps were used in the experiment. Each pheromone trap was baited with (Z)-11-hexadecen-1-ol and approximately 3-6 mg of β-caryophyllene and each control trap was baited with (Z)-11-hexadecen-1-ol. The control trap contained no β-caryophyllene or other synergists. The trapped adult insects of Spodoptera exigua were collected on a daily basis and the total number of trapped insects was counted. Statistical analysis was done using the Least Squares means separation from the SAS GLM procedure.

Heliothis virescens = test: Field trap capture of Heliothis virescens with pheromone mixture with or without synergist (Tedders traps); type: in vivo
Procedure: An experiment was carried out near Monticello, Drew County in Arkansas to study the response of tobacco bud worm, Heliothis virescens to a pheromone synergist. The experiment was carried out in a habitat of cotton and soybean. β-caryophyllene was used as a synergist with a mixture of pheromones (Z,E)-9,12-tetradecadien-1-ol acetate and (Z)-9-tetradecen-1-ol acetate at the ratio of 7:3. Tedders traps were used in the experiment. Each pheromone trap was baited with the pheromone mixture and approximately 3-6 mg of 3-caryophyllene and each control trap was baited with the pheromone mixture. The control trap contained no β-caryophyllene or other synergists. The pheromone mixture used in the experiment was LURETAPE® obtained from Hereon Environmental in Emigsville, Pa. The trapped adult insects of Heliothis virescens were collected on a daily basis and the total number of trapped insects was counted. Statistical analysis was done using the Least Squares means separation from the SAS GLM procedure.

C=C1CC/C=C(\C)CC[C@@H]2[C@@H]1CC2(C)C [β-caryophyllene]
change in the number of captured Spodoptera exigua (Spodoptera exigua; year 2004, FIG. 4): ~−9%
increase in the number of captured Spodoptera exigua (Spodoptera exigua; year 2005, cotton field, three locations in Arkansas, FIG. 3): ~69%
increase in the number of captured Heliothis virescens (Heliothis virescens; year 2004, approximately 3-6 mg β-caryophyllene added to pheromone mixture 7:3 (LURETAPE) vs control trap with pheromone mixture only, FIG. 2): ~147%
increase in the number of captured Heliothis virescens (Heliothis virescens; year 2005, approximately 3-6 mg β-caryophyllene added to pheromone mixture (Z,E)-9,12-tetradecadien-1-ol acetate and (Z)-9-tetradecen-1-ol acetate 7:3 (LURETAPE) vs control trap with pheromone mixture only, cotton and soybean habitat, Arkansas, FIG. 1): ~131%
